Tests used:
Type in all cases: physicochemical
[1] = Solubility of stabilizer in water/ethanol mixture as found in perfumes (appearance); details: 0.1 wt. % stabilizer in water/ethanol (96%) 53.9/46 wt. %
Source text: An often occurring problem in the stabilization of colorants, dyes, fragrances and active ingredients is the solubility respectively the crystallization of the stabilizer/stabilizing composition in the final product form.

[2] = Color stabilization in violet liquid soap, irradiated with 100 MED, visual PANTONE color; details: irradiated 100 MED
Procedure: (§1) Basic formulation of the liquid soap:
(§2) The liquid soaps containing different colorants were irradiated with 100 MED and the color was determined visually according to Tints; PANTONE Color Tint Selector, The PANTONE Library of Color.

[3] = Color stabilization in blue liquid soap, irradiated with 100 MED, visual PANTONE color; details: irradiated 100 MED
Procedure: as §1, §2
Blue liquid soap colored with FD&C Blue 1 W 092 (CI 42090)

[4] = Color stabilization in green liquid soap, irradiated with 100 MED, visual PANTONE color; details: irradiated 100 MED
Procedure: as §1, §2
Green liquid soap colored with 0.9 ppm Green vent W 7003 (CI 61570)

[5] = 0.1 wt. % stabilizer, blank non irradiated 70% Tint

Structure (SMILES): O=C(c1ccc(O)cc1O)c1ccc(O)cc1O [Benzophenon-2]
- Appearance [1]: Precipitate

Structure (SMILES): COc1ccc(C(=O)c2ccccc2)c(O)c1 [Benzophenon-3]
- Appearance [1]: Turbid

Structure (SMILES): O=C(c1ccccc1)c1ccc(O)cc1O [Benzophenone-1, benzophenone-1]
- Index (PANTONE tint) [2, 5]: 30% Tint
- Color (PANTONE) ([2]; 3.1 ppm Vert Turquise W 7003 and 0.5 ppm FD&C Red 40WO93, 0.1 wt. % stabilizer, blank non irradiated Pantone 494C): Pantone 495C
- Index (PANTONE tint) ([3]; 0.1 wt. % stabilizer, blank non irradiated 50% Tint): 50% Tint
- Color (PANTONE) ([3]; FD&C Blue 1 W 092, 0.1 wt. % stabilizer, blank non irradiated Pantone 3125C): Pantone 3125C

Structure (SMILES): COc1cc(O)c(C(=O)c2ccccc2)cc1S(=O)(=O)O [Benzophenone-4, benzophenone-4]
- Index (PANTONE tint) [4, 5]: 70% Tint
- Color (PANTONE) ([4]; 0.9 ppm Green vent W 7003, 0.1 wt. % stabilizer, blank non irradiated Pantone 367C): Pantone 367C

From US8207108B2, “Stabilizing composition” (DSM IP Assets B.V., priority 2005, dated 2012)
